Source: patent US8222270B2 (Medicis Pharmaceutical Corporation, priority 2008, dated 2012)

Legend:
[1] = Skin, eye and vaginal irritation studies; assay type: in vivo, rabbits
Text: The more severe dermal irritation seen in the rat is not predictive of human response.

[2] = test system: human monocytes/macrophages and keratinocytes; assay: In vitro cytokine induction; assay type: cell-based
Text: The panel of cytokines induced varied with the cell's tissue origin.

CC(C)Cn1cnc2c(N)nc3ccccc3c21 [imiquimod, 1-(2-methylpropyl)-1H-imidazo[4,5-c]quinolin-4-amine]
Vaginal tract irritation ([1]; rat or rabbit, every other day for 10 days at 10 and 50 mg/dose): not irritating
Eye irritation ([1]; unformulated at 100 mg/eye or formulated up to 5 mg/eye): mild or no eye irritation
Skin irritation ([1]; unformulated at 500 mg or formulated up to 250 mg per site): non-irritating
Release of interferon alpha (IFN-α) and other cytokines [2]: induces the release
